{"source": "patent EP2982745A1", "about": "“Method for expanding immune cells” (Johann Wolfgang Goethe-Universität, Frankfurt am Main, priority 2014, dated 2016)", "key": {"Primary NK cells [1]": {"tested_on": "Primary NK cells", "assay": "NK cell subset distribution during expansion (flow cytometry)", "assay_type": "cell-based, human", "conditions": "IL-2/-15/SPV-106 at 5µM; 3, 6 and 10 days; n = 3; figure 3", "experimental": "(§1) NKL cell line was grown in Iscove's Modified Dulbecco's Medium (IMDM-Lonza) supplemented with 20% fetal bovine serum and recombinant human interleukine 2 (IL-2, 100 U/ml). Proliferation assay was performed by culturing 2x10^5 NKL cells/ml (96 multiwell; Nunc Thermo Scientific) in 200 µl growth medium supplemented with IL-2 (100 U/ml); IL-2/-15 (10 ng/ml); or IL-2/-15/SPV-106 5µM. Cells were counted and culture medium was changed every three days. Primary NK cells were isolated from peripheral blood of healthy donors using different methods of NK cell isolation (such as Easy Sep Human NK Cell Enrichment Kit, Stem cell Technologies or Human NK Cell Negative Selection Kit, Miltenyi). Proliferation assay was performed by culturing 2x10^6 primary NK cells/ml (24 multiwell ) in 1 ml growth medium supplemented with IL-2 (100 U/ml)/IL-15 (10 ng/ml); or IL-2/-15/SPV-106 5µM. Cells were counted and culture medium was changed every three days. Average of relative cell counts was determined microscopically using Trypan blue staining to exclude death or damaged cells.\nPrimary NK cells were cultured in growth medium for 10 days in presence of IL-2/-15, IL 2/-15, or IL-2/-15/ SPV-106 (at 5µM). At 3, 6 and 10 the NK cell subset distribution (CD56^high : CD56^dim) was analysed by flow cytometry. Average of the NK cell subset ratio is shown in the graph of figure 3 (n = 3 at each time point)."}, "Primary NK cells [2]": {"tested_on": "Primary NK cells", "assay": "Proliferation assay of primary NK cells (relative cell counts, Trypan blue)", "assay_type": "cell-based, human", "conditions": "IL-2/-15/SPV-106 at 5 µM; after 10 days of culture; n = 3; figure 2", "experimental": "as §1\nPrimary NK cells isolated from peripheral blood were cultured in growth medium for 10 days in presence of IL-2/-15, or IL-2/-15/SPV-106 (5µM). At 3, 6 and 10 days cells were counted. Average of relative cell counts in comparison of 100% at day 0 is shown in the graph of figure 2 (n = 3 at each time point)."}, "K562 target cells": {"tested_on": "K562 target cells", "assay": "Europium release cytotoxicity assay of expanded NK cells", "assay_type": "cell-based, human", "conditions": "NK cells expanded by cytokines and 5µM SPV-106; E/T ratios 2.5:1, 5:1, 10:1; 4 h; figure 4", "description": "Effector cells were generated prepared as described above. As target cells, K562, a human chronic myelogenous leukemia cell line, […], were maintained in culture in RPMI 1640 medium supplemented with 10% fetal bovine serum. The medium was changed three times a week, and the cells were in the log phase of growth when used as targets in cytotoxicity assays. About 5 x10^6 target cells were washed in saline to reduce extracellular Ca^+2 content. The cell pellet was resuspended in 1 ml of labeling buffer supplemented with […] Eu(DH3C00)^3+, 100 mM DTPA, and 0.5 mg of dextran sulfate. This cell suspension was incubated for 20 min at room temperature with occasional shaking. The labeling process was stopped by the addition of […] of 100 mM CaCl2 solution per ml. After 5 min of continued incubation, the cells were washed three times in 30 ml of repair buffer and then one to two times in 10 ml of medium and were finally resuspended in CM at a concentration of 5 x 10^4 cells/ml. […] The percentage of specific cytotoxicity was calculated as follows: ((experimental release (counts)-spontaneous release (counts)) : (maximal release (counts)-spontaneous release (counts)) x 100.\nKilling activity of K562 target cells was assessed by Europium Assay as described in the following Material and Methods section."}, "NKL cell line": {"tested_on": "NKL cell line", "assay": "Proliferation assay of NKL cell line (cell counts)", "assay_type": "cell-based", "conditions": "IL-2/-15/SPV-106 (5µM); already after 3 days of culture; counted at 3, 6 and 10 days; n = 7; figure 1", "experimental": "as §1\nNKL cells were cultured in growth medium for 10 days in presence of IL-2, IL-2/-15, or IL-2/-15/SPV-106 (5µM). SPV-106 is the selective activator of histone acetylase PCAF. At 3, 6 and 10 days cells were counted. Average cell number (x 10^4) is shown in the graph of figure 1 (n = 7 at each time point). […]"}}, "data": [{"smiles": "CCCCCCCCCCCCCCC=C(C(=O)OCC)C(=O)OCC", "note": "[SPV-106]", "values": [{"measurement": "NK cell subset distribution (CD56^high : CD56^dim)", "setting": "Primary NK cells [1]", "value": "did not change the naturally occurring NK subset distribution"}, {"measurement": "primary NK cell proliferation (average of relative cell counts in comparison of 100% at day 0)", "setting": "Primary NK cells [2]", "value": "enhances primary NK cell proliferation"}, {"measurement": "cytotoxic capacity (killing activity of K562 target cells)", "setting": "K562 target cells", "value": "retained cytotoxic capacity"}, {"measurement": "NKL cell line proliferation (average cell number)", "setting": "NKL cell line", "value": "enhances NKL cell line proliferation"}]}]}
